In the experiment the target is OROV endonuclease (N-terminal endonuclease domain of OROV RNA-polymerase) (Oropouche virus, UniProt A0A0B5CUJ1). Kind of experiment: fluorescence assay, cleavage of labelled DNA FAM-TCTCTAGCAGTGGCGCC-TAM. It is filed as biochemical.

The term IC50 denotes the midpoint of a concentration-inhibition curve. Regarding `COc1cc2[nH]c3c(OC)c(OC)ccc3c(=O)c2c(OC)c1OC` [FAC21, 1,2,3,5,6-Pentamethoxy-9-(10H)-acridinone], the IC50 was determined as 1400 ± 300 nM.

Source of the values: article PMC10792649 (Current Research in Microbial Sciences, 2023).
